This note sets out measurements from patent US10391150B2, “Treatments for migraine and related disorders” (The University of Chicago, priority 2011, dated 2019).

Entries after “also recorded” stand apart in the source; their conditions may differ. Where two headings read alike, the source gives them in different places.

In experiment [1] the test system is SD in neocortex and hippocampus of anesthetized rat. Kind of experiment: SD threshold in vivo (0.5 M KCl injection) after nasal administration. The conditions noted are these: control 1-8 nL. As to the method:
Images show experimental setups for nasal administration and testing. (FIG. 7A) Nasal injection setup showing heat lamp and thermo-regulator that maintains temperature at 37° C. plus nose cone used to deliver isoflurane anesthesia. (FIG. 7B) Operator is shown administering nasal IGF-1 solution, which is performed in a fume hood to adequately vent isoflurane from nose cone. (FIG. 7C) Image illustrates standard electrophysiology setup. Anesthetized animal is placed into a standard electrophysiology holder and anesthesia maintained by a nose cone delivering 3% isoflurane in oxygen. Arterial oxygen saturation is monitored with a pulse-oximeter. Animals are warmed to 37.5° C. with a heating plate. SD is induced by progressively injecting larger volumes of 0.5 M KCl from an 8 μm diameter microelectrode. SD is registered with a second microelectrode used for DC recordings placed more caudally. After SD is evoked by a given injection pulse, the stimulating electrode is withdrawn and a volume re-injected under mineral oil. The diameter of the resultant KCl injection sphere is then measured off line using a compound microscope and the injection volume calculated. For example, in the above whole animal experiments it took 1-8 nL of 0.5 M KCl to evoke SD in control brain regions while after acute IGF-1 this amount rose to 67-109 nL. A day after IGF-1 treatment the volume needed to evoked SD was 34-48 nL. IFN-γ treatment required 338 nL of 0.5 M KCl a day after treatment and IL-11 required 67-200 nL.
Rats (FIGS. 6 and 7) are anesthetized with inhalational isoflurane and kept warm. While anesthetized, animals are placed in a supine position and 50 μL of sterile drug (i.e., IFN-γ, IGF-1, or IL-11) solution [or sterile saline vehicle (sham control)] is administered nasally by delivering 5 μL alternating between the left and right naris every 2 min over 20 minutes. Animals are given nasal drug treatments daily at the same time for 7 days before subsequent experiments. Doses for all 3 agents begin with the effective doses noted in our work using slice cultures (1×), then include others (0.1× and 10×). The inventors base this strategy on the fact that the effective culture dose for IGF-1 (40 ng/mL) closely approximates the dose used in vivo (143 μg/kg).
This approach was applied to measurement of SD threshold (FIG. 10) after treatment (FIG. 7) with nasally administered IGF-1 (150 μg), IL-11 (1 μg), IFN-γ (50,000 units), and insulin (20 μg). […] Resistance against SD was always greater in hippocampus compared to neocortex (n=4, controls; n=3, acutely after IGF-1; n=6, one day after IGF-1; n=6, one day after IL-11; n=6, one day after IFN-γ; and n=3, acutely after insulin).
Nasal administration followed by SD threshold evaluation in vivo. Vehicle or human recombinant IGF-1 (150 μg) is administered intranasally. SD threshold is established by injection of nanoliter volumes of 0.5 M KCl into neocortex or hippocampus (−2.0 mm from Bregma and 1.5 mm lateral from midline at either 750 μm or 2,800 μm into brain, respectively) using a thin-walled glass pipette and Picospritzer. Once a threshold is established, it is confirmed two more times, with an exemplary record from a vehicle-sham animal shown below. […] The diameter of the injected sphere is then measured using a compound microscope and used to calculate the injected volume, then moles of potassium. […]

Experiment [2] has as its system OS from cLTP in hippocampal slice cultures. Kind of experiment: OS / reactive oxygen species generated from chemical long-term potentiation (cLTP) in slice cultures. The class given is cell-based, rat. The conditions noted are these: 3 days treatment (IFN-γ 500 U/mL; IL-11; IGF-1), compared to shams. On the procedure: This beneficial effect of low-level IFN-γ is supported by results from rats. In rats, enrichment, which occurs with hippocampal learning, led to a significant elevation in hippocampal T-cells, IFN-γ and MBP.
Experiments were performed in rat hippocampal slices cultures and SD induced as previously described (Pusic et al., 2011). Results were derived from n≥3-6/group. […] This is consistent with the neural activity increase seen after SD, which mimics the hyperexcitability evident in migraine patients.
This prompted the inventors to examine whether insulin could reduce SD susceptibility by increasing CA3 pyramidal neuron bursting. The inventors induced SD trans-synaptically in rat HSC using electrical stimuli (100 μs pulses @ 10 Hz for 1 s) ranging from 1 to 10,000 nC in order to determine SD threshold in sham and experimental groups (Pusic et al., 2011). Results were based on n≥3-6/group. […] This insulin dose approximates the pharmacological levels seen in humans treated with nasal insulin. […] The inventors hypothesized that the effect of insulin occurred through IGF-1 receptor cross-talk.
The inventors use a well-accepted method for inducing cLTP in slice cultures (Kraig et al., 2010; Otmakhov et al., 2004a; Otmakhov et al., 2004b; Kopec et al., 2006). The protocol consists of raising cAMP levels and increasing synaptic activity using rolipram/forskolin applied in a Mg^2+-free Ringer's solution (36° C.) for 5 min, then allowing slices to recover in normal media.

For experiment [3], the system named is CA3 area evoked excitability. The class given is cell-based, rat. More on the design: key to evoked excitability response rating: a normal field potential (FP; left) was rated “1”; a FP that included stimulus-related bursting activity (center) was rated “2”; a stimulus that resulted in spreading depression (right) was rated is a “3”. The note with it: for evoked excitability versus control: H2O2 exposure. As to the method:
FIGS. 11a-11g IGF-1 decreased CA3 oxidative stress (OS) and its related hyperexcitability. […] Relative evoked excitability was determined as a sum of responses seen (e.g., responses of “2” and a “3” yielded an overall excitability score of five). […] (FIGS. 11d-e) Exemplary images of control (FIG. 11d) slice culture OS compared to increased slice OS induced by exposure to menadione (FIG. 11e). Calibration bar, 200 Dotted boxes indicate CA3 areas of interest used for relative OS quantifications (f and g).

The test system of experiment [4] is myelin basic protein (MBP). Kind of experiment: Myelin basic protein (MBP) Western blot in hippocampal slice cultures. The class given is cell-based, rat. As to the method:
FIGS. 14A-14C. Reduced myelin basic protein (MBP) from SD depends on IFN-γ/T-cell activation and sphingomylinase. […] Thus, confirming involvement of T cells.
FIGS. 15A-15C. Physiological and transient elevation [i.e., phasic (see FIG. 1)] of IFN-γ triggers completely opposite effects. Transient (i.e., 500 U/mL×12 hours; all groups n≥5) exposure of hippocampal slice cultures was nutritive when assessed seven days later.
(In western blotting, separated proteins are transferred to a membrane and probed.)

Setting [5] is: a day after nasal treatment (IGF-1 150 μg; IL-11 1 μg; IFN-γ 50,000 units).

Regarding Insulin-like growth factor 1 [IGF-1], the “volume of 0.5 M KCl needed to evoke SD” value in experiment [1] (setting [5]) was 34 to 48 nL; in experiment [1] (acutely after nasal treatment (IGF-1 150 μg; insulin 20 μg)), 67 to 109 nL. The “OS / reactive oxygen species generated from cLTP” value in experiment [2] is given as “significant reduction in OS from cLTP”. The “evoked excitability versus control” value in experiment [3] (without or with IGF-1 pretreatment for 3 days) is “abrogated; also recorded: non-significant difference from control”; in experiment [3] (without or with acute IGF-1, 30 minutes after H2O2), “abrogated”. Moreover, the “CA3 area evoked excitability” value in experiment [3] (IGF-1 exposure alone) was “no significant impact”. For the same molecule, in experiment [3] (IGF-1 exposure alone), the “evoked excitability response rating” value worked out at 1.

B1: Interferon-gamma (protein, listed as Homo sapiens)
chain: MKYTSYILAFQLCIVLGSLGCYCQDPYVKEAENLKKYFNAGHSDVADNGTLFLGILKNWKEESDRKIMQSQIVSFYFKLFKNFKDDQSIQKSVETIKEDMNVKFFNSNKKKRDDFEKLTNYSVTDLNVQRKAIHELIQVMAELSPAAKTGKRKRSQMLFRGRRASQ
Take B1: the “volume of 0.5 M KCl needed to evoke SD” value in experiment [1] (setting [5]) was determined as 338 nL. Further, the “OS / reactive oxygen species generated from cLTP” value in experiment [2] was “significantly reduced reactive oxygen species”. Also, the MBP levels result was “further decline in MBP” in experiment [4] (IFN-γ with co-administration of TNF-α (100 ng/mL)) and “reduce MBP levels” in experiment [4] (chronically applied IFN-γ 500 U/mL × 24 hours). The MBP versus baseline entry in experiment [4] (transient (pulsed) IFN-γ 500 U/mL × 12 hours, assessed seven days later) is listed as “MBP rises above baseline; also recorded: increased above baseline”.
